Data published in the supplement of paper PMC7017272.
± gives the standard deviation of the averaged measurements.

Key:
Conditions in all cases: treatment time: 3 days
UT-SCC-81 [1] = assay: relative IC50 (midpoint of the fitted curve; maximal inhibition may be below 50%); higher = less potent
How it was run: (§1)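 Using 384-well plates, 500 cells/well of HPV-negative HNSCC cell lines were grown on plastic, on 500 µg/mL Matrigel or Myogel coatings, or embedded in Matrigel or Myogel with rat collagen I. They were treated with compounds at five 10-fold concentrations for 3 days, and luminescence from CellTiter-Glo 2.0 was normalised to vehicle (0.1% DMSO) and cell-killing control wells. IC50, maximal inhibition and drug sensitivity score were derived from percent-inhibition dose–response curves in the FIMM pipeline.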

UT-SCC-28 [2] = assay: as above
How it was run: as §1

UT-SCC-24B [3] = assay: as above
How it was run: as §1

UT-SCC-42A [4] = assay: as above
How it was run: as §1

UT-SCC-81 [5] = assay: maximal % inhibition of viability relative to DMSO; higher = stronger effect
Description: (§2)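 HNSCC cell lines (500 cells/well, 384-well) were cultured on plastic, on top of (2D) or embedded (3D) in Matrigel or human leiomyoma matrix Myogel (500 ug/mL; Myogel 3D mixed with rat collagen I). Cells were treated for 3 days with 5 ten-fold concentrations of each drug, and viability was read by CellTiter-Glo. Viability was normalised to DMSO and benzethonium chloride controls and fitted with the FIMM DSRT pipeline to give IC50 (nM), maximal % inhibition and DSS. Suffixes _1/_2/_3 are replicates. Only inhibition-mode (IC50) fits are kept.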

UT-SCC-106A = assay: as above
Description: as §2

UT-SCC-40 = assay: as above
Description: as §2

UT-SCC-28 [6] = assay: as above
Description: as §2

UT-SCC-42B = assay: as above
Description: as §2

UT-SCC-24B [7] = assay: as above
Description: as §2

UT-SCC-73 = assay: as above
Description: as §2

UT-SCC-42A [8] = assay: as above
Description: as §2

UT-SCC-14 = assay: as above
Description: as §2

UT-SCC-8 = assay: as above
Description: as §2

UT-SCC-44 = assay: as above
Description: as §2

[9] = culture condition: embedded in Matrigel
[10] = culture condition: embedded in Myogel + collagen I
[11] = culture condition: on top of Matrigel
[12] = culture condition: on top of Myogel
[13] = culture condition: plastic 2D (no matrix)

## Cn1cnc2c(F)c(Nc3ccc(Br)cc3F)c(C(=O)NOCCO)cc21 [Binimetinib]
UT-SCC-81 [1]; [9]
  relative IC50: 9.22 nM
UT-SCC-81 [1]; [10]
  relative IC50: 175 nM
UT-SCC-81 [1]; [11]
  relative IC50: 53.2 nM
UT-SCC-81 [1]; [12]
  relative IC50: 14.9 nM
UT-SCC-81 [1]; [13]
  relative IC50: 74.4 nM
UT-SCC-28 [2]; [10]
  relative IC50: > 989 nM
UT-SCC-28 [2]; [11]
  relative IC50: 26.5 nM
UT-SCC-24B [3]; [9]
  relative IC50: 115 nM
UT-SCC-24B [3]; [11]
  relative IC50: 101 nM
UT-SCC-24B [3]; [13]
  relative IC50: 69 nM
UT-SCC-42A [4]; [9]
  relative IC50: 13.8 nM
UT-SCC-42A [4]; [11]
  relative IC50: 8.75 nM
UT-SCC-42A [4]; [12]
  relative IC50: 14.9 nM
UT-SCC-42A [4]; [13]
  relative IC50: 25.5 nM
UT-SCC-81 [5]; [9]
  maximal % inhibition of viability: 85.5 ± 1%
UT-SCC-81 [5]; [10]
  maximal % inhibition of viability: 18.7 ± 4.7%
UT-SCC-81 [5]; [11]
  maximal % inhibition of viability: 76.3 ± 3.8%
UT-SCC-81 [5]; [12]
  maximal % inhibition of viability: 23.5 ± 3.9%
UT-SCC-81 [5]; [13]
  maximal % inhibition of viability: 38.7 ± 2.1%
UT-SCC-106A; [9]
  maximal % inhibition of viability: 48.3 ± 3.9%
UT-SCC-106A; [10]
  maximal % inhibition of viability: 16.4 ± 2.9%
UT-SCC-106A; [11]
  maximal % inhibition of viability: 60.1 ± 2.9%
UT-SCC-106A; [12]
  maximal % inhibition of viability: 20.6 ± 2.3%
UT-SCC-106A; [13]
  maximal % inhibition of viability: 62.2 ± 1.8%
UT-SCC-40; [9]
  maximal % inhibition of viability: 77.3 ± 2.2%
UT-SCC-40; [10]
  maximal % inhibition of viability: 58.1 ± 13%
UT-SCC-40; [11]
  maximal % inhibition of viability: 72.4 ± 2%
UT-SCC-40; [12]
  maximal % inhibition of viability: 44.7 ± 8.7%
UT-SCC-40; [13]
  maximal % inhibition of viability: 52.8 ± 6%
UT-SCC-28 [6]; [9]
  maximal % inhibition of viability: 38.5 ± 2.6%
UT-SCC-28 [6]; [10]
  maximal % inhibition of viability: 12.5 ± 11%
UT-SCC-28 [6]; [11]
  maximal % inhibition of viability: 31.2 ± 2.9%
UT-SCC-28 [6]; [13]
  maximal % inhibition of viability: 21.9 ± 6.2%
UT-SCC-42B; [9]
  maximal % inhibition of viability: 66.2 ± 7.5%
UT-SCC-42B; [11]
  maximal % inhibition of viability: 48.5 ± 15%
UT-SCC-42B; [12]
  maximal % inhibition of viability: 24.8 ± 7%
UT-SCC-42B; [13]
  maximal % inhibition of viability: 31.3 ± 8.6%
UT-SCC-24B [7]; [9]
  maximal % inhibition of viability: 60.3 ± 0.64%
UT-SCC-24B [7]; [10]
  maximal % inhibition of viability: 49.6 ± 11%
UT-SCC-24B [7]; [11]
  maximal % inhibition of viability: 50.7 ± 2.5%
UT-SCC-24B [7]; [12]
  maximal % inhibition of viability: 28.6 ± 5.1%
UT-SCC-24B [7]; [13]
  maximal % inhibition of viability: 69.4 ± 4.1%
UT-SCC-73; [9]
  maximal % inhibition of viability: 80.5 ± 1.5%
UT-SCC-73; [10]
  maximal % inhibition of viability: 53.5 ± 17%
UT-SCC-73; [11]
  maximal % inhibition of viability: 76.8 ± 1.7%
UT-SCC-73; [12]
  maximal % inhibition of viability: 60.7 ± 0.93%
UT-SCC-73; [13]
  maximal % inhibition of viability: 66.9 ± 4.2%
UT-SCC-42A [8]; [9]
  maximal % inhibition of viability: 48.9 ± 1.6%
UT-SCC-42A [8]; [10]
  maximal % inhibition of viability: 24.5 ± 4.6%
UT-SCC-42A [8]; [11]
  maximal % inhibition of viability: 52.2 ± 5.8%
UT-SCC-42A [8]; [12]
  maximal % inhibition of viability: 28.6 ± 5.7%
UT-SCC-42A [8]; [13]
  maximal % inhibition of viability: 46.3 ± 2.8%
UT-SCC-14; [9]
  maximal % inhibition of viability: 29.8 ± 10%
UT-SCC-14; [10]
  maximal % inhibition of viability: 33.8 ± 15%
UT-SCC-14; [11]
  maximal % inhibition of viability: 33.3 ± 9.7%
UT-SCC-14; [12]
  maximal % inhibition of viability: 32.4 ± 24%
UT-SCC-14; [13]
  maximal % inhibition of viability: 25.9 ± 25%
UT-SCC-8; [9]
  maximal % inhibition of viability: 40.9 ± 26%
UT-SCC-8; [10]
  maximal % inhibition of viability: 19.8 ± 23%
UT-SCC-8; [11]
  maximal % inhibition of viability: 28.9 ± 14%
UT-SCC-8; [12]
  maximal % inhibition of viability: 29 ± 15%
UT-SCC-8; [13]
  maximal % inhibition of viability: 31 ± 25%
UT-SCC-44; [9]
  maximal % inhibition of viability: 70.1 ± 4.2%
UT-SCC-44; [10]
  maximal % inhibition of viability: 31.5 ± 8.1%
UT-SCC-44; [11]
  maximal % inhibition of viability: 52.9 ± 11%
UT-SCC-44; [12]
  maximal % inhibition of viability: 34 ± 5.1%
UT-SCC-44; [13]
  maximal % inhibition of viability: 45 ± 6.7%
